This note sets out measurements from patent US8163756B2 (priority 2004, dated 2012).

Common to all, as to format: biochemical
The target in assay [1] is B-Raf(V599E) kinase (Homo sapiens, UniProt P15056, V600E). In words: B-Raf(V599E) kinase assay B1 (construct 1, MEK1 substrate, coupled spectrophotometric). The procedure: The test compounds were incubated with the reaction mixtureat 30° C. for 2 h. […] The reaction rate was calculated using the […] time frame. […] IC50 values were calculated from a series of percent inhibition values determined at a range of inhibitor concentrations using software routines as implemented in the GraphPad Prism software package.
B-Raf(V599E) kinase, sequence (P15056 with tags, fused parts or gaps V600E): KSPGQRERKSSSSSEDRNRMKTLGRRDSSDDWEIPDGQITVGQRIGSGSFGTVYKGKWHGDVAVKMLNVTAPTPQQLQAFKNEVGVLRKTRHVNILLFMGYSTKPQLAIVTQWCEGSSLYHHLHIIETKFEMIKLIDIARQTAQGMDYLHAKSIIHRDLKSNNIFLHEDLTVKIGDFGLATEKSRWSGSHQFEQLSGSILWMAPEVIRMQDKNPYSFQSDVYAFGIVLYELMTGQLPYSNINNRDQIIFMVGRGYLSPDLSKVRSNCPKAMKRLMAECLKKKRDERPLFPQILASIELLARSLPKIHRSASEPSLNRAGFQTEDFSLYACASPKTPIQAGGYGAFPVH

Assay [2] addresses T1, KDR kinase (Homo sapiens, UniProt P35968, DEL940-989/E990V). In words: KDR kinase assay K2 (as K1, 2.1 nM enzyme, 2 h pre-incubation, 1.0 mM ATP). Conditions: Method K2; read-out: KDR Data (IC50). The procedure:
(§1) IC50 values were calculated from a series of percent inhibition values determined at a range of inhibitor concentrations using software routines as implemented in the GraphPad Prism software package.

Assay [3] has as its target T1, KDR kinase. In words: KDR kinase assay K1 (pyruvate kinase/lactate dehydrogenase coupled, spectrophotometric). Conditions: Method K1; read-out: KDR Data (IC50). The procedure:
as §1

For assay [4], the target named is phosphorylated p-38-alpha kinase (Homo sapiens, UniProt Q16539). In words: P-38 alpha kinase assay P1 (coupled spectrophotometric, 2 h pre-incubation). Conditions: method P1 (2 h pre-incubation); read-out: P-38 Data.
phosphorylated p-38-alpha kinase, sequence (Q16539 1-360 isoform Q16539-2): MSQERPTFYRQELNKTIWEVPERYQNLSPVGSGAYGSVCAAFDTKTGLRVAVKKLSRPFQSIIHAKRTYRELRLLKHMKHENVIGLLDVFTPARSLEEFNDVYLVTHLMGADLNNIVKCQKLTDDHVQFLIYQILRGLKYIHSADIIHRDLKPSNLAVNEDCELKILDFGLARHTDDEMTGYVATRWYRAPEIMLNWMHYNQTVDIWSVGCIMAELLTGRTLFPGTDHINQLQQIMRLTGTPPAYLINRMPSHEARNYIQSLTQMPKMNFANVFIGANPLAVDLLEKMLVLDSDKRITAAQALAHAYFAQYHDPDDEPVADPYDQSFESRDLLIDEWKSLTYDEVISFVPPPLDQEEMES
Assay [5] has as its target T2, Abl kinase (Homo sapiens, UniProt P00519).
T2 sequence (P00519 229-512): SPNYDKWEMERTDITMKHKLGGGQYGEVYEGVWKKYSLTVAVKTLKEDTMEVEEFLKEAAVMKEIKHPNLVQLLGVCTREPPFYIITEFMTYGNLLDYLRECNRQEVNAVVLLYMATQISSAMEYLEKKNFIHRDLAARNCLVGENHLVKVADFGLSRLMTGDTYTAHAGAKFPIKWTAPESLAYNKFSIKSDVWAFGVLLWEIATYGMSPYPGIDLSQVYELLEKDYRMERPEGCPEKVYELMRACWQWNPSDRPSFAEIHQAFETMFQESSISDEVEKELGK
In words: Abl kinase assay A1 (pyruvate kinase/lactate dehydrogenase coupled, spectrophotometric). Conditions: Method A1; read-out: Abl Data (IC50). The procedure: as §1

T1 sequence (P35968 with tags, fused parts or gaps DEL940-989/E990V): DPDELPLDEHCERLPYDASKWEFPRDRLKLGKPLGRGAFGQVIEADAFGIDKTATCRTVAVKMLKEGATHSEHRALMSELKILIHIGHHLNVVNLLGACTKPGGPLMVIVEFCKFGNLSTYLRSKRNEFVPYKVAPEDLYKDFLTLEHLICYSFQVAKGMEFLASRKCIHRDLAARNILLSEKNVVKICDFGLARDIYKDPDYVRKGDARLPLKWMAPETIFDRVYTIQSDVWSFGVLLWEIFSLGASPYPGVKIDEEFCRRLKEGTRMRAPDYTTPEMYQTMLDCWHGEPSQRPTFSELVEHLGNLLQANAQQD

On to `CC(C)(C)c1cc(NC(=O)Nc2cc(F)c(F)cc2F)n(-c2ccc3[nH]c(=O)ccc3c2)n1` [Example 330], for which the IC50 was determined as 3.2 nM in assay [1] and 390 nM in assay [2].
`CC(C)(C)c1cc(NC(=O)N[C@H]2CCc3ccccc32)n(-c2ccc3c(c2)CCNC3)n1` [Example 199, 1-(3-t-butyl-1-(1,2,3,4-tetrahydroisoquinolin-6-yl)-1H-pyrazol-5-yl)-3-((S)-2,3-dihydro-1H-inden-1-yl)urea]: in assay [2], the IC50 was found to be 34400 nM.
Still for that read-out and setting: as for `CC(C)(C)c1cc(NC(=O)Nc2cccc3ccccc23)n(-c2ccc3c(c2)C(=O)NCC3)n1` [Example 348, 1-[3-t-butyl-1-(1-oxo-1,2,3,4-tetrahydroisoquinolin-7-yl)-1 H-pyrazol-5-yl]-3-(naphthalen-1-yl)urea], the figure is 16500 nM.
As for `CC(C)(C)c1cc(NC(=O)Nc2cccc(Cl)c2Cl)n(-c2cccc(Br)c2)n1` [Example 49, 1-(1-(3-bromophenyl)-3-t-butyl-1H-pyrazol-5-yl)-3-(2,3-dichlorophenyl)urea], the IC50 in assay [1] is 3.8 nM; in assay [2], 86 nM.
For `CC(C)(C)c1cc(NC(=O)Nc2cccc(F)c2F)n(-c2ccc(CCO)cc2)n1` [Example 262, 1-(3-t-butyl-1-(4-(2-hydroxyethyl)phenyl)-1H-pyrazol-5-yl)-3-(2,3-difluoro-phenyl)urea] the same measures were 34 nM and 2700 nM.
For the compound `CC(C)(C)c1cc(NC(=O)Nc2ccc(F)c(F)c2F)n(-c2ccc3[nH]c(=O)ccc3c2)n1` [Example 333, 1-(3-t-butyl-1-(2-oxo-1,2-dihydroquinolin-6-yl)-1H-pyrazol-5-yl)-3-(2,3,4-trifluorophenyl)urea], the results for the IC50 in assay [1] and in assay [2] were 3.4 nM and 230 nM, respectively.
As for `CCOC(=O)C1CCN(C(=O)Cc2ccc(-n3nc(C(C)(C)C)cc3NC(=O)Nc3cccc(Cl)c3Cl)cc2)CC1` [Example 497], the IC50 in assay [1] came to 47 nM; in assay [2], 1200 nM.
For `CC(C)(C)c1cc(NC(=O)Nc2cc(F)cc(F)c2)n(-c2cccc(C#N)c2)n1` [Example 208, 1-(3-t-butyl-1-(3-cyanophenyl)-1H-pyrazol-5-yl)-3-(3,5-difluorophenyl)urea], in assay [2], the IC50 came to 470 nM.
Regarding `CC(C)(C)c1cc(NC(=O)Nc2ccc(Cl)cc2)n(-c2cccc(CCO)c2)n1` [Example 342, 1-{3-t-butyl-1-[3-(2-hydroxyethyl)phenyl]-1H-pyrazol-5-yl}-3-(4-chlorophenyl)-urea], the IC50 in assay [2] stood at 5700 nM.
Same read-out and setting: the figure for `COc1cccc(-n2nc(C(C)(C)C)cc2NC(=O)Nc2ccc(Cl)c(Cl)c2)c1` [Example 337, 1-(3-t-butyl-1-(3-methoxyphenyl)-1H-pyrazol-5-yl)-3-(3,4-dichlorophenyl)urea] is 2000 nM.
The same measure, in the same setting: the figure for `COc1cccc(-n2nc(C(C)(C)C)cc2NC(=O)Nc2ccc([N+](=O)[O-])cc2)c1` [Example 338, 1-(3-t-butyl-1-(3-methoxyphenyl)-1H-pyrazol-5-yl)-3-(4-nitrophenyl)urea] is 5000 nM; for `CC(C)(C)c1cc(NC(=O)Nc2ccc(F)cc2F)n(-c2ccc3c(c2)CCN(S(C)(=O)=O)C3)n1` [Example 200, 1-(3-t-butyl-1-(2-(methylsulfonyl)-1,2,3,4-tetrahydroisoquinolin-6-yl)-1H-pyrazol-5-yl)-3-(2,4-difluorophenyl)urea] it is 2700 nM; for `CC(C)(C)c1cc(NC(=O)Nc2ccc(Cl)cc2)n(-c2cccc(CNC(=O)N3CCOCC3)c2)n1` [Example 343, 1-(3-t-butyl-1-{3-[(morpholine-4-carboxamido)methyl]phenyl}-1H-pyrazol-5-yl)-3-(4-chlorophenyl)urea] it is 18000 nM.
Consider `CC(C)(C)c1cc(NC(=O)Nc2cccc(Cl)c2Cl)n(-c2ccc3c(c2)CCN(S(C)(=O)=O)C3)n1` [Example 154, 1-(3-t-butyl-1-(2-(methylsulfonyl)-1,2,3,4-tetrahydroisoquinolin-6-yl)-1H-pyrazol-5-yl)-3-(2,3-dichlorophenyl)urea], for which the IC50 in assay [3] is 92 nM; in assay [4], 12 nM; in assay [5] it was 270 nM; in assay [1], 2.9 nM.
Consider `CC(C)(C)c1cc(NC(=O)Nc2ccc(F)c(F)c2)n(-c2cccc(C#N)c2)n1` [Example 206, 1-(3-t-butyl-1-(3-cyanophenyl)-1H-pyrazol-5-yl)-3-(3,4-difluorophenyl)urea], for which, in assay [2], the IC50 was found to be 480 nM.
Regarding `CC(C)(C)c1cc(NC(=O)Nc2cccc(Cl)c2Cl)n(-c2ccc3c(c2)CN[C@H](C(=O)O)C3)n1` [Example 177, (3S)-7-(3-t-butyl-5-(3-(2,3-dichlorophenyl)ureido)-1H-pyrazol-1-yl)-1,2,3,4-tetra-hydroisoquinoline-3-carboxylic acid], the IC50 came to 230 nM in assay [3], 43 nM in assay [4], 1800 nM in assay [5] and 6.3 nM in assay [1].
With `CC(C)(C)c1cc(NC(=O)Nc2cccc(Cl)c2Cl)n(-c2cccc(CO)c2)n1` [Example 1, 1-[3-t-butyl-1-(3-hydroxymethyl-phenyl)-1H-pyrazol-5-yl]-3-(2,3-dichlorophenyl)urea], the IC50 in assay [3] stood at 130 nM; in assay [4] it was 11 nM; in assay [5] it was 310 nM; in assay [1] it was 4.6 nM.
For `CC(C)(C)c1cc(NC(=O)Nc2cccc(Cl)c2Cl)n(-c2ccc3c(c2)C[C@@H](C(=O)O)NC3)n1` [Example 186, (3S)-6-(3-t-butyl-5-(3-(2,3-dichlorophenyl)ureido)-1H-pyrazol-1-yl)-1,2,3,4-tetrahydroisoquinoline-3-carboxylic acid] the same measures were 900 nM, 50 nM, 60 nM and 9.2 nM.
Turning to `CCOC(=O)C1CCN(C(=O)Cc2cccc(-n3nc(C(C)(C)C)cc3NC(=O)Nc3cccc(Cl)c3Cl)c2)CC1` [Example 344, ethyl 1-[2-(3-{3-t-butyl-5-[3-(2,3-dichlorophenyl)ureido]-1H-pyrazol-1-yl}phenyl)acetyl]piperidine-4-carboxylate], the IC50 in assay [2] was 2700 nM.
For `CC(C)(C)c1cc(NC(=O)Nc2cccc(Cl)c2Cl)n(-c2ccc3c(c2)CN[C@H](C(N)=O)C3)n1` [Example 178, 1-(3-t-butyl-1-((3S)-3-carbamoyl-1,2,3,4-tetrahydroisoquinolin-7-yl)-1 H-pyrazol-5-yl)-3-(2,3-dichlorophenyl)urea], the IC50 in assay [3] is 180 nM; in assay [4] it was 46 nM; in assay [5] it was 230 nM; in assay [1] it was 2 nM.
In the case of `CC(C)(C)c1cc(NC(=O)Nc2cc(F)cc(F)c2F)n(-c2cccc(C#N)c2)n1` [Example 209, 1-(3-t-butyl-1-(3-cyanophenyl)-1H-pyrazol-5-yl)-3-(2,3,5-trifluorophenyl)urea], the IC50 in assay [2] amounted to 260 nM.
Take `CC(C)(C)c1cc(NC(=O)Nc2cccc(Cl)c2Cl)n(-c2ccc3c(c2)CCNC3=O)n1` [Example 137, 1-(3-t-butyl-1-(1-oxo-1,2,3,4-tetrahydroisoquinolin-6-yl)-1H-pyrazol-5-yl)-3-(2,3-dichloro-phenyl)urea]: the IC50 in assay [3] is 1000 nM; in assay [4], 55 nM; in assay [5], 150 nM; in assay [1], 2.5 nM.
Take `CCOC(=O)C1CCCN(C(=O)Cc2ccc(-n3nc(C(C)(C)C)cc3NC(=O)Nc3cccc(Cl)c3Cl)cc2)C1` (centres unmarked) [Example 346, ethyl 1-[2-(4-{3-t-butyl-5-[3-(2,3-dichlorophenyl)ureido]-1H-pyrazol-1-yl}phenyl)acetyl]piperidine-3-carboxylate]: the IC50 in assay [2] turned out to be 1700 nM.
The same measure, in the same setting: the figure for `CC(C)(C)c1cc(NC(=O)Nc2ccc(Cl)cc2)n(-c2ccc3ncccc3c2)n1` [Example 339, 1-[3-t-butyl-1-(quinolin-6-yl)-1H-pyrazol-5-yl]-3-(4-chlorophenyl)urea] is 1200 nM.
In the case of `CC(C)(C)c1cc(NC(=O)Nc2cccc(Cl)c2Cl)n(-c2ccc3c(c2)NCC3)n1` [Example 112, 1-(3-t-butyl-1-(indolin-6-yl)-1H-pyrazol-5-yl)-3-(2,3-dichlorophenyl)urea], the IC50 turned out to be 210 nM in assay [3], 12 nM in assay [4], 480 nM in assay [5] and 2.9 nM in assay [1].
`CC(C)(C)c1cc(NC(=O)Nc2cccc(Cl)c2Cl)n(-c2cccc(CCC(=O)O)c2)n1` [Example 46, 3-(3-{3-t-Butyl-5-[3-(2,3-dichloro-phenyl)ureido]-1H-pyrazol-1-yl}-phenyl)propionic acid]: the IC50 worked out at 170 nM in assay [3], 6 nM in assay [4], 2500 nM in assay [5] and 3.3 nM in assay [1].
Taken in the same sequence, the figures for `CC(C)(C)c1cc(NC(=O)Nc2cccc(Cl)c2Cl)n(-c2ccc(C(C)(C)O)cc2)n1` [Example 20, 1-{3-t-butyl-1-[4-(2-hydroxypropan-2-yl)phenyl]-1H-pyrazol-5-yl}-3-(2,3-dichlorophenyl)urea] were 130 nM, 60 nM, 1600 nM and 8.5 nM.
